The values that follow come from patent US6372777B1, “Cyclic AMP-specific phosphodiesterase inhibitors” (ICOS Corporation, priority 1999, dated 2002).

The structures appear in SMILES notation.

The target of data set [1] is T1, human recombinant PDE4 (Homo sapiens, UniProt Q07343).
T1 construct: made in house; host or cells: Saccharomyces cerevisiae BJ2-54 (strain YI23 harboring HDUN2.32, if PDE4B)
Nature of the data set: Inhibition of human recombinant PDE4 (IC50). The class given is biochemical.

Data set [2] concerns human peripheral blood lymphocytes. Nature of the data set: Lipopolysaccharide-stimulated TNFα release from human peripheral blood lymphocytes. In kind it is cell-based. To be noted: for EC50: Homo sapiens, Lymphocyte, LPS-stimulated TNFα release, read-out: PBL/TNFα EC50. As to the method:
The compounds of structural formulae (I) and (II) also were tested for an ability to reduce TNFα secretion in human peripheral blood lymphocytes. The ability to reduce TNFα secretion is related to the EC50 values (i.e., the effective concentration of the compound capable of inhibiting 50% of the total TNFα). To assess the ability of a compound to reduce TNFα secretion in human peripheral blood lymphocytes (PBL), the following tests were performed. […] Heparinized blood (approximately 30 mL) drawn from human volunteers was mixed 1:1 with Dulbecco's modified phosphate-buffered saline. This mixture was mixed 1:1 with HISTOPAQUE and centrifuged at 1,500 rpm at room temperature without braking in the swinging bucket of a Beckman model TJ6 centrifuge. Erythrocytes were centrifuged to the bottom of the tubes, and serum remained at the surface of the tubes. A layer containing lymphocytes sedimented between the serum and HISTOPAQUE® layers, and was removed by aspiration to a fresh tube. The cells were quantified and adjusted to 3×10^6 cells/mL and a 100 μL aliquot is placed into the wells of a 96 well plate. Test compounds and RPMI media (Gibco/BRL Life Sciences) are added to each of the wells 15 minutes prior to addition of bacterial LPS ([…]). The mixture was allowed to incubate for 20 hours at 37° C. in a humidified chamber. The cells then were separated by centrifuging at 800 rpm for 5 minutes at room temperature. An aliquot of 80 µL of supernatant was transferred to a new plate or determination of TNFα concentration. TNFα protein in the cell supernatant fluids was measured using a commercially available enzyme-linked immunosorbent assay (ELISA) (CYTOSCREEN® Immunoassay Kit from Biosource International). The cell-based assay provided the following results for various compounds of the present invention. The EC50 values (i.e., effective concentration of the compound capable of inhibiting 50% of the total TNFα ) illustrate the ability of the present compounds to inhibit LPS-stimulated TNFα release from human PBL.

The subject of data set [3] is serum TNFα. Nature of the data set: Combined mouse endotoxin-stimulated TNFα release assay (serum TNFα). The settings on record: LPS mouse model. The class given is in vivo, female Balb/c mice. As to the method:
The purpose of this study was to determine the efficacy of PDE4 inhibitors in vivo in an LPS mouse model together with a determination with respect to central nervous system (CNS) side-effects manifested by a decrease in spontaneous mobility. The test animals were female Balb/c mice, having an average weight of about 20 g. The PDE4 inhibitors, formulated in 30% Cremophor® EL, were administered via intraperitoneal (i.p.) injections at doses of 0.1, 1.0, 10.0, and 100 mg/kg. Individual dose volumes (about […]) were adjusted based on the body weights measured. One hour later, 5 mg/kg LPS in a final volume of 200 μL was injected via the tail vein to each animal. Ninety minutes following the LPS treatment, the animals were bled and serum samples were collected before being stored at −70° C. until assayed. For efficacy determination, the serum samples were diluted two-fold and TNFα levels were determined using the CYTOSCREEN® Immunoassay Kit (Biosource International) The data were averaged between triplicate sample subjects for each of the tested compounds.

Data set [4] concerns spontaneous mobility. Nature of the data set: Locomotor activity / sedative side-effect visual scoring. In kind it is in vivo, female Balb/c mice. More on the design: key: Vehicle control animals were rated a single “+”; animals that were effectively immobilized and stretched out on the bottom of the cage with little detectable movement were rated as “++++.”. To be noted: 10 mg/kg i.p., mice. As to the method:
The purpose of this study was to determine the efficacy of PDE4 inhibitors in vivo in an LPS mouse model together with a determination with respect to central nervous system (CNS) side-effects manifested by a decrease in spontaneous mobility.
The test animals were female Balb/c mice, having an average weight of about 20 g. The PDE4 inhibitors, formulated in 30% Cremophor® EL, were administered via intraperitoneal (i.p.) injections at doses of 0.1, 1.0, 10.0, and 100 mg/kg. Individual dose volumes (about […]) were adjusted based on the body weights measured. One hour later, 5 mg/kg LPS in a final volume of 200 μL was injected via the tail vein to each animal. Ninety minutes following the LPS treatment, the animals were bled and serum samples were collected before being stored at −70° C. until assayed.
For side-effect profiling, a subjective visual scoring system was utilized at 5 min and 20min after administration of PDE4 inhibitors. […] In this instance, the subjects could be monitored continuously over pre-set intervals.
Movement of the X-Y plane, or rearing up on the hind legs, was quantified by counting the number of “light-beam” crosses per unit of time. […] The quantitative scoring correlated well with the subjective measurements described above.

In data set [5] the test system is recombinant human PDE4. The settings on record: reported value; read-out: IC50 with respect to recombinant human PDE4; cited from earlier work.
In data set [6] the target is T2, human recombinant PDE4B (Homo sapiens, UniProt Q07343).
T2 construct: made in house; host or cells: Saccharomyces cerevisiae, strain YI23 harboring HDUN2.32
Nature of the data set: PDE inhibition, PDE4B. In kind it is biochemical.

Data set [7] addresses T3, PDE1A (Homo sapiens, UniProt P54750).
T3 construct: contained the complete open reading frame of PDE1A3; made in house; host or cells: baculovirus-infected Sf9 cells
Nature of the data set: PDE inhibition, PDE1A. The class given is biochemical.

Data set [8] has as its target T4, PDE1B (Homo sapiens, UniProt Q01064).
T4 construct: made in house; host or cells: Saccharomyces cerevisiae BJ2-54
Nature of the data set: PDE inhibition, PDE1B. In kind it is biochemical.

In data set [9] the target is T5, PDE1C (Homo sapiens, UniProt Q14123).
T5 construct: Plasmid Hcam3aBB contained the complete open reading frame of PDE1C3; made in house; host or cells: baculovirus-infected Sf9 cells
Nature of the data set: PDE inhibition, PDE1C. In kind it is biochemical.

Data set [10] concerns the target T6, PDE2 (Homo sapiens, UniProt O00408).
T6 construct: made in house; host or cells: Saccharomyces cerevisiae, strain YI34
Nature of the data set: PDE inhibition, PDE2. The class given is biochemical.

For data set [11], the target named is T7, PDE3A (Homo sapiens, UniProt Q14432).
T7 construct: Plasmid pBB-PDE3A contained the complete open reading frame of PDE3A; made in house; host or cells: baculovirus-infected Sf9 cells (washed 100,000 x g pellet, not purified)
Nature of the data set: PDE inhibition, PDE3A. In kind it is biochemical.

For data set [12], the target named is T8, PDE5 (Homo sapiens, UniProt O76074).
T8 construct: made in house; host or cells: Saccharomyces cerevisiae BJ2-54
Nature of the data set: PDE inhibition, PDE5. In kind it is biochemical.

Data set [13] concerns the target T9, PDE7 (Homo sapiens, UniProt Q13946).
T9 construct: made in house; host or cells: Saccharomyces cerevisiae BJ2-54
Nature of the data set: PDE inhibition, PDE7. The class given is biochemical.

T1 sequence (Q07343 1-564 isoform Q07343-2): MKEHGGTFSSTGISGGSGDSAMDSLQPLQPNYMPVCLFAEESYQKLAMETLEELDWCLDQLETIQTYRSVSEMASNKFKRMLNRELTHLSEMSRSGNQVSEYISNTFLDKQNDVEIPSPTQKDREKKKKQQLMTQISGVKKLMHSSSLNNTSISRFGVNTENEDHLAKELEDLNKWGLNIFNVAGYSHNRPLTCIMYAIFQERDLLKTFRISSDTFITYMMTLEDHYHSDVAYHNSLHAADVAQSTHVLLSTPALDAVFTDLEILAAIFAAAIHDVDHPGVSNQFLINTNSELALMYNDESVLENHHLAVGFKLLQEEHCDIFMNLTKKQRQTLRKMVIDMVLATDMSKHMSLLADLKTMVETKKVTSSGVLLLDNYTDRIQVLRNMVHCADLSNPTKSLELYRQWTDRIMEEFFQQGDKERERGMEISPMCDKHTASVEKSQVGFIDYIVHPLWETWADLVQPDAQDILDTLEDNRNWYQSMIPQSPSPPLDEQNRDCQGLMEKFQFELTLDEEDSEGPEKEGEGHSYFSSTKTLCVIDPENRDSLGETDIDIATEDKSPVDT
T7 sequence (Q14432 whole entry): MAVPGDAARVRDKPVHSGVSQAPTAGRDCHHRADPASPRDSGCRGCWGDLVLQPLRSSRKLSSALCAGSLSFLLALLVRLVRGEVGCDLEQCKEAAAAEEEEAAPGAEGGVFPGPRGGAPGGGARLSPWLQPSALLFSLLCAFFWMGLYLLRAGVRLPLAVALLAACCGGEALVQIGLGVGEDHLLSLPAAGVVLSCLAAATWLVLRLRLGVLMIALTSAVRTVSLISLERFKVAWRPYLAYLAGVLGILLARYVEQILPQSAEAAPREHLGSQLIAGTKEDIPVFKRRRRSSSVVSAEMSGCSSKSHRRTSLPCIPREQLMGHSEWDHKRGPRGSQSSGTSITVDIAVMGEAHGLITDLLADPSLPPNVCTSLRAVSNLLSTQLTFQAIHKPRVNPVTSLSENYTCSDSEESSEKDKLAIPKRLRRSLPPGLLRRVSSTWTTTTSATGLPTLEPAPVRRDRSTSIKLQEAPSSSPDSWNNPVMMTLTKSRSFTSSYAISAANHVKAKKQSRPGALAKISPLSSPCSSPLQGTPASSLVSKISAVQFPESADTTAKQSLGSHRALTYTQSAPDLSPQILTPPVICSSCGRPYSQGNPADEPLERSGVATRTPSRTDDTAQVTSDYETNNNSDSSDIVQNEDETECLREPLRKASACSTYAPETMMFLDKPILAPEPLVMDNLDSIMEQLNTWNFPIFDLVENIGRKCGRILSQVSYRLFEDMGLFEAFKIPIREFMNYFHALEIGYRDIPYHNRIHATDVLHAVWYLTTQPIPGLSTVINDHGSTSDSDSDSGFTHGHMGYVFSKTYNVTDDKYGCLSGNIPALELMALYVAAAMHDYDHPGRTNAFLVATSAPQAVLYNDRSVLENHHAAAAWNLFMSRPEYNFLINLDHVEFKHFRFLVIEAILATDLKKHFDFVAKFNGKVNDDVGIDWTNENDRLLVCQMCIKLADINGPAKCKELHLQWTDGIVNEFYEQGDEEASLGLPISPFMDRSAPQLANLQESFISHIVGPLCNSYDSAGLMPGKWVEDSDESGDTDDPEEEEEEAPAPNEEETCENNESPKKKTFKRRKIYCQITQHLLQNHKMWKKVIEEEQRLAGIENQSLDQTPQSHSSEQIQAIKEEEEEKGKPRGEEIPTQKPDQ
T9 sequence (Q13946 whole entry): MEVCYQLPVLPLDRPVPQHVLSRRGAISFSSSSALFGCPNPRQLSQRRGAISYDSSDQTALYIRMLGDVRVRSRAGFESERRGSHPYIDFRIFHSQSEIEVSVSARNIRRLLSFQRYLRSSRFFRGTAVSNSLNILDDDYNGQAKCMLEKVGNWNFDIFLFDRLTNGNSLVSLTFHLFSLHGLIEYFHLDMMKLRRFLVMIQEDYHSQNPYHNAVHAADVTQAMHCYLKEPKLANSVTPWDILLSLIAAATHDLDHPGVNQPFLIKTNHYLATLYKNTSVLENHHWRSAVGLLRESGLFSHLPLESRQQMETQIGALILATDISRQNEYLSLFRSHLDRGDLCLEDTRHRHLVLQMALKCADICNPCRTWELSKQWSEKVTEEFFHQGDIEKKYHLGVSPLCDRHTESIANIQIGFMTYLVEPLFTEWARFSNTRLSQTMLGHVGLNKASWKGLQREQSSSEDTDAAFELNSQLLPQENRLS
T6 sequence (O00408 whole entry): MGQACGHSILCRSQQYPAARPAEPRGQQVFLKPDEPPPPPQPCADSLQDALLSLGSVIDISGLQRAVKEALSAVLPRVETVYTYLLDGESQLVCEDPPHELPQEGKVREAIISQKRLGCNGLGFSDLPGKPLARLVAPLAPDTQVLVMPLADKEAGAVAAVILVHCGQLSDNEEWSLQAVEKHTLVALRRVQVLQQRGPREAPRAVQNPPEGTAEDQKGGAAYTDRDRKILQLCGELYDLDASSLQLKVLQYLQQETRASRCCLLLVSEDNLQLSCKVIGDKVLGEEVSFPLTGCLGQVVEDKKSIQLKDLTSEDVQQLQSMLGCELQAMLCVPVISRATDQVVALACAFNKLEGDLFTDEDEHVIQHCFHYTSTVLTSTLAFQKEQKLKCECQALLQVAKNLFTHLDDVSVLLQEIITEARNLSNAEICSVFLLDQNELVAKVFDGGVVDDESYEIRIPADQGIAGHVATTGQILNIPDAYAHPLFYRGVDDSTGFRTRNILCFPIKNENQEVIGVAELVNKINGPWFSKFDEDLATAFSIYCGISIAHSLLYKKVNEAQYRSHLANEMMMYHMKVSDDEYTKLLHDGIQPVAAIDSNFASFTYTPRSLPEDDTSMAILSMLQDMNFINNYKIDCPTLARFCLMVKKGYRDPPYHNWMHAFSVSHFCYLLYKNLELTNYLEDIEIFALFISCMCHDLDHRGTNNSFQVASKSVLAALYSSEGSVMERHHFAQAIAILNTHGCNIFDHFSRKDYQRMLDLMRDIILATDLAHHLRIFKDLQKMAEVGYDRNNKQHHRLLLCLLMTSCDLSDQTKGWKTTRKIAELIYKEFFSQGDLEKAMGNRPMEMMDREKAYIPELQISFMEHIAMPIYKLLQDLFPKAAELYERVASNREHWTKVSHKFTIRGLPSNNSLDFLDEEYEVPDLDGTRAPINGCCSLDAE
T2 sequence (Q07343 whole entry): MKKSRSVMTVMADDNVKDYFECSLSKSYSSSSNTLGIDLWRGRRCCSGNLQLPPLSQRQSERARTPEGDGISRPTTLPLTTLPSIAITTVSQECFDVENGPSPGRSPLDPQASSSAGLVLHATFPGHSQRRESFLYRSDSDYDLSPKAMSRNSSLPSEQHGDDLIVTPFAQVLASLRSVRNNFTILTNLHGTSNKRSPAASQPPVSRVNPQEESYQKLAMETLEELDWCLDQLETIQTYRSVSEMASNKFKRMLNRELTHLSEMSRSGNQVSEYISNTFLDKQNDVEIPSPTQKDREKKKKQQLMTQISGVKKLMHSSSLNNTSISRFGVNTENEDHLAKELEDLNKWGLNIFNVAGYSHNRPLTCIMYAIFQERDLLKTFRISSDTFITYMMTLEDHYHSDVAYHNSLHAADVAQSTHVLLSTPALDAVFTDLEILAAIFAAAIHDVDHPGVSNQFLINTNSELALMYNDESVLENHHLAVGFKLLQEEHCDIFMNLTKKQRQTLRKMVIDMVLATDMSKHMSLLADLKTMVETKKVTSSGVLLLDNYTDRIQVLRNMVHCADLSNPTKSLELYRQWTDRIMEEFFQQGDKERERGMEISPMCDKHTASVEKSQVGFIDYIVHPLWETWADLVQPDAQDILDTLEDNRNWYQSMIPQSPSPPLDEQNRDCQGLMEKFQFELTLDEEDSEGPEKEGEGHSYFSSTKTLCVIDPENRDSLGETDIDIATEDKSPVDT

Consider `CCOC(=O)c1cc(-c2ccccc2)n(-c2cccc(Cl)c2)c1C` [Example 3, 1-(3-Chlorophenyl)-2-methyl-5-phenyl-1H-pyrrole-3-carboxylic acid ethyl ester], for which, in data set [1], the IC50 stood at 0.2 µM. The EC50 in data set [2] amounted to 1.5 µM.

`COC(=O)N1C[C@@H](c2ccc(OC)c(OC3CCCC3)c2)[C@](C)(C(C)=O)C1` (relative stereo) [Comparative Example, trans-3-(3-cyclopentoxy-4-methoxyphenyl)-1-methoxycarbonyl-4-methyl-4-(methylcarbonyl)pyrrolidine, reference compound]: the “% TNFα Inhibition” value came to 43% in [3] (1 mg/kg i.p.), 100% in data set [3] (10 mg/kg i.p.) and 100% in data set [3] (100 mg/kg i.p.). Moreover, the “Sedative Effect” value in data set [4] was “+”.

Consider `CCOC(=O)c1cc(C)n(-c2cccc(Cl)c2Cl)c1-c1ccccc1` [Example 42, 1-(2,3-Dichlorophenyl)-5-methyl-2-phenyl-1H-pyrrole-3-carboxylic acid ethyl ester], for which, in data set [1], the concentration for half-maximal inhibition (IC50) is 1.49 µM. In addition, in [2], the EC50 was found to be 100 µM.

In the case of `COC(=O)N1CC(c2ccc(OC)c(OC3CCCC3)c2)C(C)(C(C)=O)C1` (centres unmarked), in data set [5], the IC50 is ~0.002 µM.

On to `CCOC(=O)c1cc(C)n(-c2cccc(N)c2)c1-c1ccccc1` [Example 40, 1-(3-Aminophenyl)-5-methyl-2-phenyl-1H-pyrrole-3-carboxylic acid ethyl ester], for which the IC50 in data set [1] turned out to be 1.29 µM. Further, the EC50 in data set [2] was 6.72 µM.

On to `COc1ccc(C2CNC(=O)C2)cc1OC1CCCC1` (centres unmarked) [Rolipram, reference compound], for which the “LPS-induced TNFα secretion from human lymphocytes” value in [2] (preliminary experiments) is listed as “inhibit LPS-induced TNFα secretion from human lymphocytes in a dose-dependent fashion”. In addition, the IC50 in data set [5] was ~0.2 µM.

For the compound `CCOC(=O)c1cc(C)n(-c2ccccc2)c1-c1ccccc1` [Example 21, 5-Methyl-1,2-diphenyl-1H-pyrrole-3-carboxylic acid ethyl ester], in [2], the EC50 turned out to be 10 µM.

Regarding `CCOC(=O)c1cc(-c2ccccc2)n(-c2cccc([N+](=O)[O-])c2)c1C` [Example 22, 2-Methyl-1-(3-nitrophenyl)-5-phenyl-1H-pyrrole-3-carboxylic acid ethyl ester], the 50% inhibitory concentration (IC50) came out at 0.15 µM in [1]; 0.15 µM in data set [6]; 35.5 µM in [7]; 21 µM in [8]; 21.8 µM in data set [9]; 4.5 µM in data set [10]. The IC50 in data set [11] is 89 µM; in [12], 12.5 µM; in data set [13], 10.6 µM. The EC50 in data set [2] was 0.87 µM. The figures for the “% TNFα Inhibition” value in [3] (1 mg/kg i.p.), in data set [3] (10 mg/kg i.p.) and in data set [3] (100 mg/kg i.p.) were 13%, 84% and 100%, respectively.

For the compound `CCOC(=O)c1cc(C)n(-c2cccc(C(C)=O)c2)c1-c1ccccc1` [Example 7, 1-(3-Acetylphenyl)-5-methyl-2-phenyl-1H-pyrrole-3-carboxylic acid ethyl ester], the IC50 in data set [1] is 6.83 µM.

Turning to `CCOC(=O)c1cc(C)n(-c2ccc([N+](=O)[O-])cc2)c1-c1ccccc1` [Example 36, 5-Methyl-1-(4-nitrophenyl)-2-phenyl-1H-pyrrole-3-carboxylic acid ethyl ester], the IC50 in data set [1] is 110 µM.

Take `CCOC(=O)c1cc(C)n(-c2cccc(S(C)(=O)=O)c2)c1-c1ccccc1` [Example 9, 1-(3-Methanesulfonylphenyl)-5-methyl-2-phenyl-1H-pyrrole-3-carboxylic acid ethyl ester]: the IC50 in [1] came out at 4.58 µM.

Consider `CCOC(=O)c1cc(C)n(-c2cccc(C(F)(F)F)c2)c1-c1ccccc1` [Example 29, 5-Methyl-2-phenyl-1-(3-trifluoro-methylphenyl)-1H-pyrrole-3-carboxylic acid ethyl ester], for which, in data set [1], the IC50 was determined as 6.78 µM.

For the compound `CCOC(=O)c1cc(-c2ccccc2)n(-c2ccccc2[N+](=O)[O-])c1C` [Example 34, 2-Methyl-1-(2-nitrophenyl)-5-phenyl-1H-pyrrole-3-carboxylic acid ethyl ester], the IC50 in data set [1] stood at 1.65 µM.
